Laboratory results published in patent US20170326146A1, “METHODS OF TREATING HEPATITIS B INFECTIONS AND RELATED DOSAGE REGIMES” (ContraVir Pharmaceuticals, Inc., priority 2016, published 2017).
Values joined by “and” are separate entries in the source; they are usually repeats but may differ in a detail not shown here. Equal values may be shown once.

Columns and labels:
[1] = Phase I clinical trial with healthy adults: safety, blood pressure, ECG; assay type: in vivo, human; conditions: healthy subjects
Method: Eight healthy subjects were given Compound I orally at a daily dose of 5 mg for administration periods of between 9 and 14 days. […] Additionally, a placebo was administered to four healthy subjects for administration periods of between 9 and 14 days. The subjects were evaluated for changes in baseline blood pressure (FIGS. 1A and 1B: Changes in systolic and diastolic blood pressure, respectively, after administration of 5 mg of Compound I; FIGS. 2A and 2B: Changes in systolic and diastolic blood pressure, respectively, after administration of 10 mg of Compound I; FIGS. 3A and 3B: Changes in systolic and diastolic blood pressure, respectively, after administration of placebo). Furthermore, electrocardiograms (ECGs) were recorded to evaluate the change in baseline of heart rate, RR intervals, PR intervals, QRS duration and QTcF in each subject (FIGS. 4A and 4B: Changes in heart rate and RR interval, respectively, after administration of 5 mg of Compound I; FIGS. 5A and 5B: Changes in heart rate and RR interval, respectively, after administration of 10 mg of Compound I; FIGS. 6A and 6B: Changes in heart rate and RR interval, respectively, after administration of placebo; FIGS. 7A, 7B, and 7C: Changes in PR interval, QRS duration, and QTcF duration, respectively, after administration of 5 mg of Compound I; FIGS. 8A, 8B and 8C: Changes in PR interval, QRS duration, and QTcF duration, respectively, after administration of 10 mg of Compound I; FIGS. 9A, 9B and 9C: Changes in PR interval, QRS duration, and QTcF duration, respectively, after administration of placebo). In the Figures, as well as in Table 2 below, individual subjects are identified by 6-digit numbers. Subjects that were administered 5 mg of Compound I, 10 mg of Compound I, or a placebo, were monitored for between 15 and 18 days, between 9 and 11 days, or between 9 and 18 days after initiation of the study, respectively. […] The baselines are defined as the last variable assessment prior to initiation of the study.

[2] = Pharmacokinetics of Compound I in human plasma: plasma concentrations of Compound I and tenofovir; assay type: in vivo; set-up: unit not given here; conditions: single oral 5 mg dose of Compound I, individual subjects
Method: The pharmacokinetics of Compound I in human plasma was also evaluated. Plasma concentrations of Compound I and tenofovir (TFV) were measured at various time points up to 24 h after oral administration of a single 5 mg dose of Compound I. The results are summarized in Table 2.

[3] = 5 mg or 10 mg daily, dose groups and placebo not told apart

Structure (SMILES): CCCCCCCCCCCCCCCCOCCCOP(=O)(O)CO[C@H](C)Cn1cnc2c(N)ncnc21 [Compound I, 3-(hexadecyloxy)propyl hydrogen ((R)-1-(6-amino-9H-purin 9-yl)propan-2-yloxy)methylphosphonate]
- Adverse events reported [1, 3]: Few, minor adverse events (i.e., mild dizziness, headache or nausea)
- ECG abnormalities reported [1, 3]: few ECG abnormalities (i.e., intraventricular conduction defect, frequent ventricular complexes and ectopic supraventricular rhythm)
- Premature discontinuation of the study ([1]; 5 mg or 10 mg of Compound I daily or placebo): No subjects needed to discontinue the study prematurely
- Safety and tolerability ([1]; oral daily dose of 5 mg for 9-14 days): safe and well-tolerated
- Safety and tolerability ([1]; oral daily dose of 10 mg for 9-14 days): safe and well-tolerated
- Pharmacokinetic plasma concentration of Compound I ([2]; 0.5 hours post-dose): 0.303 and 0.567 and <LLOQ < (0.150) (4×) and 1.090 and 0.893
- Pharmacokinetic plasma concentration of Compound I ([2]; 1 hour post-dose): 1.310 and 0.592 and 2.980 and 2.080 and <LLOQ < (0.150) (2×) and 1.570 and 0.743
- Pharmacokinetic plasma concentration of Compound I ([2]; 2 hours post-dose): 2.030 and 0.310 and 8.530 and 1.530 and 0.753 and 1.820 and 0.180 and 2.180
- Pharmacokinetic plasma concentration of Compound I ([2]; 2.5 hours post-dose): 0.412 and 1.550 and 1.350 and 5.250 and 1.340 and 1.500 and 0.206 and 1.070
- Pharmacokinetic plasma concentration of Compound I ([2]; 3 hours post-dose): 2.080 and 1.690 and 1.260 and 1.440 and 4.270 and 1.640 and 4.430 and 0.197
- Pharmacokinetic plasma concentration of Compound I ([2]; 4 hours post-dose): 1.180 and 2.460 and 0.712 and 0.508 and 1.500 and 0.520 and 1.540 and <LLOQ < (0.150)
- Pharmacokinetic plasma concentration of Compound I ([2]; 6 hours post-dose): 0.448 and 0.891 and 0.179 and <LLOQ < (0.150) (3×) and 0.372 and 0.389
- Pharmacokinetic plasma concentration of Compound I ([2]; 10 hours post-dose): <LLOQ < (0.150)
- Pharmacokinetic plasma concentration of Compound I ([2]; 12 hours post-dose): <LLOQ < (0.150)
- Pharmacokinetic plasma concentration of Compound I ([2]; 15 hours post-dose): <LLOQ < (0.150)
- Pharmacokinetic plasma concentration of Compound I ([2]; 18 hours post-dose): <LLOQ < (0.150)
- Pharmacokinetic plasma concentration of Compound I ([2]; 24 hours post-dose): <LLOQ < (0.150)
- Pharmacokinetic plasma concentration of Compound I ([2]; Pre-dose): <LLOQ < (0.150)

Structure (SMILES): C[C@H](Cn1cnc2c(N)ncnc21)OCP(=O)(O)O [TFV, tenofovir]
- Pharmacokinetic plasma concentration of TFV ([2]; 0.5 hours post-dose): <LLOQ < (0.500)
- Pharmacokinetic plasma concentration of TFV ([2]; 1 hour post-dose): <LLOQ < (0.500)
- Pharmacokinetic plasma concentration of TFV ([2]; 2 hours post-dose): 0.519 and <LLOQ < (0.500) (4×) and 0.528 and 0.733
- Pharmacokinetic plasma concentration of TFV ([2]; 2.5 hours post-dose): 0.822 and 0.693 and 0.665 and 0.708 and 0.596 and <LLOQ < (0.500) and 0.959
- Pharmacokinetic plasma concentration of TFV ([2]; 3 hours post-dose): 0.891 and <LLOQ < (0.500) (2×) and 0.764 and 0.900 and 0.781 and 0.648 and 0.918
- Pharmacokinetic plasma concentration of TFV ([2]; 4 hours post-dose): 1.140 (2×) and <LLOQ < (0.500) and 0.900 and 0.948 and 0.750 and 0.594 and 0.903
- Pharmacokinetic plasma concentration of TFV ([2]; 6 hours post-dose): 1.370 and 0.560 and 0.908 and 1.110 and 1.080 and 0.711 and 0.609 and 0.804
- Pharmacokinetic plasma concentration of TFV ([2]; 10 hours post-dose): 1.300 and 0.526 and 0.695 and 0.800 and 0.652 and 0.516 and 0.558 and 0.659
- Pharmacokinetic plasma concentration of TFV ([2]; 12 hours post-dose): 1.140 and <LLOQ < (0.500) (4×) and 0.535 and 0.664 and 0.574
- Pharmacokinetic plasma concentration of TFV ([2]; 15 hours post-dose): 1.040 and <LLOQ < (0.500) (6×) and 0.581
- Pharmacokinetic plasma concentration of TFV ([2]; 18 hours post-dose): 0.759 and <LLOQ < (0.500) (7×)
- Pharmacokinetic plasma concentration of TFV ([2]; 24 hours post-dose): 0.599 and <LLOQ < (0.500) (7×)
- Pharmacokinetic plasma concentration of TFV ([2]; Pre-dose): <LLOQ < (0.500)
